Test results published in PubChem BioAssay AID624444 (Broad Institute, 2012).
The source made the active and inactive calls.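 The calls were made as follows: active = fitted curve reaches 35% signal loss at a dose no higher than twice the top tested dose; inconclusive = flat fit with 30 to 70% loss, or poor fit; inactive = the rest.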

What follows are compounds tested on 26S proteasome chymotrypsin-like activity (human) (assay: proteasome chymotrypsin-like activity inhibition in cells, dose response, mechanism study for HSF1 activator project, U2OS cells, luminescence, dry powder (AID 624444)). Settings: Proteasome-Glo chymotrypsin luminescence.

Compound | AC35 [µM]
Cc1ccccc1CSc1nnc(N)s1 | 26
O=C(Nc1nc(SCc2ccccc2)ns1)C1CCC1 | 35.4

Same assay, conditions: Proteasome-Glo chymotrypsin luminescence, at 38 µM (top of the series)

Compound | activity change, negative = inhibition
Nc1nc(S(=O)(=O)Cc2ccccc2)ns1 | -9% (inactive)
Nc1nc(SCc2ccc(F)cc2)ns1 | -32% (inactive)
Cc1ccccc1CSc1n[nH]c(N)n1 | 19.2% (inactive)
Nc1nc(SCc2ccc(Cl)cc2Cl)ns1 | 41.7% (inactive)
Cc1ccccc1CSc1nsc(N)n1 | -3.56% (inactive)
Cc1cccc(CSc2nsc(N)n2)c1 | 3.69% (inactive)

More lines, now with the values ahead:

activity change, negative = inhibition | Compound
-11% (inactive) | Nc1nc(SCc2ccccc2)ns1
-9.05% (inactive) | Nc1nc(SCc2ccccc2Cl)ns1
-37.2% (inactive) | O=C(Nc1ccccc1)Nc1nc(SCc2ccccc2)ns1
-29.4% (inactive) | O=C(Nc1nc(SCc2ccccc2)ns1)C1CC=CCC1 (configuration not stated)
